Reference: US10316028B2, “Orexin receptor antagonists” (Heptares Therapeutics Limited, priority 2012, dated 2019)

target: T1, human Orexin-2 receptor (Homo sapiens, UniProt O43614); test: 3H-EMPA radioligand binding assay; settings: 3H-EMPA displacement, membranes of HEK293 cells transfected with human Orexin-2 receptor; KI by Cheng-Prussoff; read-out: OX2 pKi ave (converted)
T1 construct: expressed in transfected cells; host or cells: HEK293 cells (transient transfection, Genejuice); membranes
T1 sequence (O43614 1-444): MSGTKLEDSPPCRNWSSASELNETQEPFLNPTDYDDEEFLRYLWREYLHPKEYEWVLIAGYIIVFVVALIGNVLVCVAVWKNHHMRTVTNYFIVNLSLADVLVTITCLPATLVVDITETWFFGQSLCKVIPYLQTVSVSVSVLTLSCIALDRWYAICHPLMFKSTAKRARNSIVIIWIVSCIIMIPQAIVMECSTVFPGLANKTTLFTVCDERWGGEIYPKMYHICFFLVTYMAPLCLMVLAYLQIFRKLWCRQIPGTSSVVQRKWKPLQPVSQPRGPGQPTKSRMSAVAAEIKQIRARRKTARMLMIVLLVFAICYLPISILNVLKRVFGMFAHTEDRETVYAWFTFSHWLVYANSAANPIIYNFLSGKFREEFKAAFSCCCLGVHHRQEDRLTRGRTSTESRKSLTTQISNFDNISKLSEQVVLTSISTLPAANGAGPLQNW
In short: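 Membranes from HEK293 cells transiently transfected with human orexin-2 receptor cDNA, assayed with [3H]EMPA. Bound ligand collected on PEI-treated GF/B filters and counted by scintillation; IC50 from inhibition curves, Ki by Cheng-Prusoff.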

Compound	Ki
COc1ccc(N2C(=O)N(Cc3ccc(Cl)cc3F)c3ccncc3S2(=O)=O)cc1OC [Example 92, 4-(4-Chloro-2-fluorobenzyl)-2-(3,4-dimethoxyphenyl)-2H-pyrido[4,3-e][1,2,4]thiadiazin-3(4H)-one 1,1-dioxide]	741 nM
COc1ccc(N2C(=O)N(Cc3c(F)cc(F)cc3F)c3ncccc3S2(=O)=O)cc1OC [Example 93, 2-(3,4-Dimethoxyphenyl)-4-(2,4,6-trifluorobenzyl)-2H-pyrido[2,3-e][1,2,4]thiadiazin-3(4H)-one 1,1-dioxide]	1.2 nM
COc1cc(F)c(CN2C(=O)N(c3ccc(OC)c(OC)c3)S(=O)(=O)c3cccnc32)c(F)c1 [Example 95, 4-(2,6-Difluoro-4-methoxybenzyl)-2-(3,4-dimethoxyphenyl)-2H-pyrido[2,3-e][1,2,4]thiadiazin-3(4H)-one 1,1-dioxide]	0.129 nM
COc1ccc(N2C(=O)N(Cc3ncc(F)cc3F)c3ncccc3S2(=O)=O)cc1OC [Example 96, 4-[(3,5-Difluoropyridin-2-yl)methyl]-2-(3,4-dimethoxyphenyl)-2H-pyrido[2,3-e][1,2,4]thiadiazin-3(4H)-one 1,1-dioxide]	13.2 nM
COc1ccc(N2C(=O)N(Cc3c(F)cc(Cl)cc3F)c3ncccc3S2(=O)=O)cc1OC [Example 97, 4-(4-Chloro-2,6-difluorobenzyl)-2-(3,4-dimethoxyphenyl)-2H-pyrido[2,3-e][1,2,4]thiadiazin-3(4H)-one 1,1-dioxide]	0.661 nM
COc1cc(N2C(=O)N(Cc3c(F)cc(F)cc3F)c3ncccc3S2(=O)=O)cc(OC)n1 [Example 98, 2-(2,6-Dimethoxypyridin-4-yl)-4-(2,4,6-trifluorobenzyl)-2H-pyrido[2,3-e][1,2,4]thiadiazin-3(4H)-one 1,1-dioxide]	1.48 nM
COc1ccc(N2C(=O)N(Cc3c(F)cc(F)cc3F)c3ncccc3S2(=O)=O)nc1OC [Example 99, 2-(5,6-Dimethoxypyridin-2-yl)-4-(2,4,6-trifluorobenzyl)-2H-pyrido[2,3-e][1,2,4]thiadiazin-3(4H)-one 1,1-dioxide]	1.55 nM
Cc1ccc(N2C(=O)N(Cc3c(F)cc(F)cc3F)c3ncccc3S2(=O)=O)cc1C [Example 101, 2-(3,4-Dimethylphenyl)-4-(2,4,6-trifluorobenzyl)-2H-pyrido[2,3-e][1,2,4]thiadiazin-3(4H)-one 1,1-dioxide]	3.47 nM
COc1cc(F)c(CN2C(=O)N(c3ccc(C)c(C)c3)S(=O)(=O)c3cccnc32)c(F)c1 [Example 102, 4-(2,6-Difluoro-4-methoxybenzyl)-2-(3,4-dimethylphenyl)-2H-pyrido[2,3-e][1,2,4]thiadiazin-3(4H)-one 1,1-dioxide]	0.776 nM
Cc1cc(C)cc(N2C(=O)N(Cc3c(F)cc(F)cc3F)c3ncccc3S2(=O)=O)c1 [Example 103, 2-(3,5-Dimethylphenyl)-4-(2,4,6-trifluorobenzyl)-2H-pyrido[2,3-e][1,2,4]thiadiazin-3(4H)-one 1,1-dioxide]	4.27 nM
COc1ccc(N2C(=O)N(Cc3c(F)cc(F)cc3OC)c3ccccc3S2(=O)=O)cc1OC [Example 104, 4-(2,4-Difluoro-6-methoxybenzyl)-2-(3,4-dimethoxyphenyl)-2H-1,2,4-benzothiadiazin-3(4H)-one 1,1-dioxide]	7.08 nM
COc1ccc(N2C(=O)N(Cc3c(F)cc(F)cc3F)c3ccccc3S2(=O)=O)cc1OC [Example 105, 2-(3,4-Dimethoxyphenyl)-4-(2,4,6-trifluorobenzyl)-2H-1,2,4-benzothiadiazin-3(4H)-one 1,1-dioxide]	1.95 nM
COc1cc(F)c(CN2C(=O)N(c3ccc(OC)c(OC)c3)S(=O)(=O)c3ccccc32)c(F)c1 [Example 108, 2-(3,4-Dimethoxyphenyl)-4-(2,6-difluoro-4-methoxybenzyl)-2H-1,2,4-benzothiadiazin-3(4H)-one 1,1-dioxide]	0.468 nM
COc1cc(F)c(CN2C(=O)N(c3cccc(S(C)(=O)=O)c3)S(=O)(=O)c3ccccc32)c(F)c1 [Example 111, 4-(2,6-Difluoro-4-methoxybenzyl)-2-[3-(methylsulfonyl)phenyl]-2H-1,2,4-benzothiadiazin-3(4H)-one 1,1-dioxide]	2.24 nM
CS(=O)(=O)c1cccc(N2C(=O)N(Cc3c(F)cc(F)cc3F)c3ccccc3S2(=O)=O)c1 [Example 112, 2-[3-(Methylsulfonyl)phenyl]-4-(2,4,6-trifluorobenzyl)-2H-1,2,4-benzothiadiazin-3(4H)-one 1,1-dioxide]	26.9 nM
COc1cc(F)c(CN2C(=O)N(c3ccc(OC)c(OC)c3)S(=O)(=O)c3ccccc32)c(Cl)c1 [Example 113, 4-(2-Chloro-6-fluoro-4-methoxybenzyl)-2-(3,4-dimethoxyphenyl)-2H-1,2,4-benzothiadiazin-3(4H)-one 1,1-dioxide]	0.0912 nM
Cc1cc(N2C(=O)N(Cc3c(F)cc(F)cc3F)c3ccccc3S2(=O)=O)cc(C)c1O [Example 114, 2-(4-Hydroxy-3,5-dimethylphenyl)-4-(2,4,6-trifluorobenzyl)-2H-1,2,4-benzothiadiazin-3(4H)-one 1,1-dioxide]	12.9 nM
COc1c(C)cc(N2C(=O)N(Cc3c(F)cc(F)cc3F)c3ccccc3S2(=O)=O)cc1C [Example 115, 2-(4-methoxy-3,5-dimethylphenyl)-4-(2,4,6-trifluorobenzyl)-2H-1,2,4-benzothiadiazin-3(4H)-one 1,1-dioxide]	0.355 nM
O=C1N(Cc2c(F)cccc2Cl)c2ccccc2S(=O)(=O)N1CC1CCOCC1 [Example 117, 4-(2-Chloro-6-fluorobenzyl)-2-(tetrahydro-2H-pyran-4-ylmethyl)-2H-1,2,4-benzothiadiazin-3(4H)-one 1,1-dioxide]	372 nM
CC1(CN2C(=O)N(Cc3c(F)cccc3Cl)c3ccccc3S2(=O)=O)COC1 [Example 118, 4-(2-Chloro-6-fluorobenzyl)-2-[(3-methyloxetan-3-yl)methyl]-2H-1,2,4-benzothiadiazin-3(4H)-one 1,1-dioxide]	372 nM
Cc1nc(CN2C(=O)N(Cc3c(F)cccc3F)c3ccccc3S2(=O)=O)cs1 [Example 119, 4-(2,6-Difluorobenzyl)-2-[(2-methyl-1,3-thiazol-4-yl)methyl]-2H-1,2,4-benzothiadiazin-3(4H)-one 1,1-dioxide]	66.1 nM
Cc1noc(C)c1CCN1C(=O)N(Cc2c(F)cccc2F)c2ccccc2S1(=O)=O [Example 120, 4-(2,6-Difluorobenzyl)-2-[2-(3,5-dimethyl-1,2-oxazol-4-yl)ethyl]-2H-1,2,4-benzothiadiazin-3(4H)-one 1,1-dioxide]	178 nM

The next lines start with the values.

Ki	Compound
0.776 nM	COc1ccc(N2C(=O)N(Cc3c(F)cccc3Cl)c3ncccc3S2(=O)=O)cc1OC [Example 94, 4-(2-Chloro-6-fluorobenzyl)-2-(3,4-dimethoxyphenyl)-2H-pyrido[2,3-e][1,2,4]thiadiazin-3(4H)-one 1,1-dioxide]
0.741 nM	COc1ccc(N2C(=O)N(Cc3c(F)cc(C)cc3Cl)c3ccccc3S2(=O)=O)cc1OC [Example 106, 4-(2-Chloro-6-fluoro-4-methylbenzyl)-2-(3,4-dimethoxyphenyl)-2H-1,2,4-benzothiadiazin-3(4H)-one 1,1-dioxide]
1.05 nM	COc1ccc(N2C(=O)N(Cc3c(F)cc(F)cc3Cl)c3ccccc3S2(=O)=O)cc1OC [Example 107, 4-(2-Chloro-4,6-difluorobenzyl)-2-(3,4-dimethoxyphenyl)-2H-1,2,4-benzothiadiazin-3(4H)-one 1,1-dioxide]
3.24 nM	COc1cc(F)c(CN2C(=O)N(c3cccc(SC)c3)S(=O)(=O)c3ccccc32)c(F)c1 [Example 109, 4-(2,6-Difluoro-4-methoxybenzyl)-2-[3-(methylsulfanyl)phenyl]-2H-1,2,4-benzothiadiazin-3(4H)-one 1,1-dioxide]
2.69 nM	CSc1cccc(N2C(=O)N(Cc3c(F)cc(F)cc3Cl)c3ccccc3S2(=O)=O)c1 [Example 110, 4-(2-Chloro-4,6-difluorobenzyl)-2-[3-(methylsulfanyl)phenyl]-2H-1,2,4-benzothiadiazin-3(4H)-one 1,1-dioxide]
1.15 nM	COc1ccc(N2C(=O)N(Cc3c(F)cc(O)cc3F)c3ccccc3S2(=O)=O)cc1OC [Example 116, 4-(2,6-Difluoro-4-hydroxybenzyl)-2-(3,4-dimethoxyphenyl)-2H-1,2,4-benzothiadiazin-3(4H)-one 1,1-dioxide]
87.1 nM	COc1ccnc(CN2C(=O)N(Cc3c(F)cccc3F)c3ccccc3S2(=O)=O)c1OC [Example 121, 4-(2,6-Difluorobenzyl)-2-[(3,4-dimethoxypyridin-2-yl)methyl]-2H-1,2,4-benzothiadiazin-3(4H)-one 1,1-dioxide]
16.6 nM	COc1ccc(N2C(=O)N(Cc3c(F)cccc3Cl)c3ccccc3S2(=O)=O)cn1 [Example 122, 4-(2-Chloro-6-fluorobenzyl)-2-(6-methoxypyridin-3-yl)-2H-1,2,4-benzothiadiazin-3(4H)-one 1,1-dioxide]
43.7 nM	COc1ccc(N2C(=O)N(Cc3c(F)cccc3Cl)c3c(F)cccc3S2(=O)=O)cn1 [Example 123, 4-(2-Chloro-6-fluorobenzyl)-5-fluoro-2-(6-methoxypyridin-3-yl)-2H-1,2,4-benzothiadiazin-3(4H)-one 1,1-dioxide]
